# Values of other authors in patent US20070077296A1, “Pharmaceutical Preparation containing Meloxicam” (priority 2005, published 2007).
smiles,measurement,value
"Cc1cnc(NC(=O)C2=C(O)c3ccccc3S(=O)(=O)N2C)s1 [meloxicam, 4-hydroxy-2-methyl-N-(5-methyl-2-thiazolyl)-2H-1,2-benzothiazine-3-carboxamide-1,1-dioxide]",solubility in water,hardly dissolve in water
